Assay results from ChEMBL document CHEMBL5329208 (RSC Med Chem, 2023).
Active and inactive are the calls of the source. The calls are words filed in the database; no cut-off is given here.

Experiments:
Hepatitis B virus [1] = assay: Antiviral activity against HBV infected human HePAD38 cells assessed as reduction of HBV DNA level with compound replacement for every 3 days and measured on day 6 by qPCR analysis; assay type: functional, organism-based
[2] = Cytotoxicity against human HePAD38 cells assessed as reduction in cell viability by CCK-8 assay; assay type: toxicity, cell-based
[3] = Selectivity index, ratio of CC50 for cytotoxicity against human HePAD38 cells assessed as reduction in cell viability to EC50 for antiviral activity against HBV infected human HePAD38 cells assessed as reduction of HBV DNA level; assay type: toxicity, cell-based; conditions: read-out: Ratio CC50/EC50
CYP2C9 = CYP2C9 (Homo sapiens, UniProt P11712); assay: Inhibition of CYP2C9 (unknown origin) at 10 uM using diclofenac as substrate incubated for 10 mins in presence of NADPH by LC-MS/MS analysis relative to control; assay type: ADME; conditions: probe diclofenac
Chain of CYP2C9 (P11712 whole entry): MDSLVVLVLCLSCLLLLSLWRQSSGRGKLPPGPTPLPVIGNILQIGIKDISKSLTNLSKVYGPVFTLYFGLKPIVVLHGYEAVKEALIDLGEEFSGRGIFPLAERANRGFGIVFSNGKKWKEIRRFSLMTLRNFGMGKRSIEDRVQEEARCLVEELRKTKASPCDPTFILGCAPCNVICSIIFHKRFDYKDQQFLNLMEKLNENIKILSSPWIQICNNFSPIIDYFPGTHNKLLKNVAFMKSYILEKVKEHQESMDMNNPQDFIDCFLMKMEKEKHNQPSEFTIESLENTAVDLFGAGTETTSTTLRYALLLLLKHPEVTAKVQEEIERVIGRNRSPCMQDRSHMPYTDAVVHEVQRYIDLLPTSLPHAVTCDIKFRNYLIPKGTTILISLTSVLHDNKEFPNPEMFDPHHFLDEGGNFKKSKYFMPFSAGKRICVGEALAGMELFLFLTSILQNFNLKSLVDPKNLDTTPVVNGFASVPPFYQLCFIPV

CYP1A2 = molecular target: T1, CYP1A2 (Homo sapiens, UniProt P05177); assay: Inhibition of CYP1A2 (unknown origin) at 10 uM using phenacetin as substrate incubated for 10 mins in presence of NADPH by LC-MS/MS analysis relative to control; assay type: ADME; conditions: probe phenacetin
T1 sequence (P05177 whole entry): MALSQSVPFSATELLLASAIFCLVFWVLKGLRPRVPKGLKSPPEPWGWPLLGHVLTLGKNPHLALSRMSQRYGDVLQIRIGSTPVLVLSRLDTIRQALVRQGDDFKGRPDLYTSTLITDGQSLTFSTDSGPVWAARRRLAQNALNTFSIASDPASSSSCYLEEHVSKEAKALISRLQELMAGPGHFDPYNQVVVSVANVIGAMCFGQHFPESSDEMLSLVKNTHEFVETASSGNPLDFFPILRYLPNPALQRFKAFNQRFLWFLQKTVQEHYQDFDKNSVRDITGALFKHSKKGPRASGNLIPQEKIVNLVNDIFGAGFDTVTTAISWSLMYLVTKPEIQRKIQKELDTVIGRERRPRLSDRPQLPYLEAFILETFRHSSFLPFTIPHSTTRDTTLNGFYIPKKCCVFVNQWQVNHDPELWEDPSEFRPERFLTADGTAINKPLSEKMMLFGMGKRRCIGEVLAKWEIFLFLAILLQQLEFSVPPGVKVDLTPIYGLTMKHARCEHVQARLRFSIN

[4] = Metabolic stability in human liver assessed as intrinsic clearance preincubated for 10 mins followed by NADPH addition and measured after 60 mins by LC-MS/MS analysis; assay type: ADME, tissue-based; conditions: time 70 min, read-out: CLH
[5] = Metabolic stability in human liver microsome assessed as half life preincubated for 10 mins followed by NADPH addition and measured after 60 mins by LC-MS/MS analysis; assay type: ADME; conditions: liver microsomes, time 70 min
[6] = Metabolic stability in human liver microsome assessed as intrinsic clearance preincubated for 10 mins followed by NADPH addition and measured after 60 mins by LC-MS/MS analysis; assay type: ADME; conditions: liver microsomes, time 70 min, read-out: CLH
hERG (KCNH2) = hERG (KCNH2) (Homo sapiens, UniProt Q12809); assay: Inhibition of hERG expressed in HEK293 cells at 1 uM at holding potential of -80 mV by whole cell patch clamp assay relative to control; assay type: toxicity, cell-based; conditions: HEK293 cells expressing hERG
Chain of hERG (KCNH2) (Q12809 whole entry): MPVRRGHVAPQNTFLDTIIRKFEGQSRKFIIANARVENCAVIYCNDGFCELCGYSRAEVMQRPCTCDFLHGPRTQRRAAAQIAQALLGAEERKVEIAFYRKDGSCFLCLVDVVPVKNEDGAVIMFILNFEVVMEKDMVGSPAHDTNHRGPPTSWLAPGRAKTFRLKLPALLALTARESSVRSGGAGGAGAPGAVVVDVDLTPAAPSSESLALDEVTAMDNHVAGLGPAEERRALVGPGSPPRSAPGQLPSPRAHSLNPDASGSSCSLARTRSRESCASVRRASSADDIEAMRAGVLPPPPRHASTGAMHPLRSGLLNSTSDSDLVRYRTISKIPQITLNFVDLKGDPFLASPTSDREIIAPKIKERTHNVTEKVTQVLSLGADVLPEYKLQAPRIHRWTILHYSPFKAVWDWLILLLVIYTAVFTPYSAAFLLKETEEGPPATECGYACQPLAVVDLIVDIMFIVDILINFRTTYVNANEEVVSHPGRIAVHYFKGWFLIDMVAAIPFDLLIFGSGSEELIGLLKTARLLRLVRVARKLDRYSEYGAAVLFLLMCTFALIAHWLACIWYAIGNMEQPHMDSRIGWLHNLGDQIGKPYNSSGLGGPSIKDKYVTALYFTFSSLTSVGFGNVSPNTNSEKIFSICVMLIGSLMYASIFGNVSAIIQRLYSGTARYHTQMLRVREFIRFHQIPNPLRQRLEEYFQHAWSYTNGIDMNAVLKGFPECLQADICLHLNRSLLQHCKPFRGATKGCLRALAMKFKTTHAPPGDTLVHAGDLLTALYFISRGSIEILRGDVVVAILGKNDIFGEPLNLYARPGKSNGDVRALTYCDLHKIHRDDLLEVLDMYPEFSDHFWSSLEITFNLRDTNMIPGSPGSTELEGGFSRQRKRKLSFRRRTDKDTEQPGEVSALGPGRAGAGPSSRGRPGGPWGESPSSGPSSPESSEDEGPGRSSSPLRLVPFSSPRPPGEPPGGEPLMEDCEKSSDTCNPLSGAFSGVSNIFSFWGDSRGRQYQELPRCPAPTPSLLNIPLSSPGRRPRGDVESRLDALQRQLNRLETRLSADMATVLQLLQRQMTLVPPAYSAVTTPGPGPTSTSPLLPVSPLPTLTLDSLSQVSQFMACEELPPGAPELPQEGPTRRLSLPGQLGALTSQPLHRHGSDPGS

CYP2C19 = CYP2C19 (Homo sapiens, UniProt P33261); assay: Inhibition of CYP2C19 (unknown origin) at 10 uM using s-mephenytoin as substrate incubated for 10 mins in presence of NADPH by LC-MS/MS analysis relative to control; assay type: ADME; conditions: probe S-mephenytoin
Chain of CYP2C19 (P33261 whole entry): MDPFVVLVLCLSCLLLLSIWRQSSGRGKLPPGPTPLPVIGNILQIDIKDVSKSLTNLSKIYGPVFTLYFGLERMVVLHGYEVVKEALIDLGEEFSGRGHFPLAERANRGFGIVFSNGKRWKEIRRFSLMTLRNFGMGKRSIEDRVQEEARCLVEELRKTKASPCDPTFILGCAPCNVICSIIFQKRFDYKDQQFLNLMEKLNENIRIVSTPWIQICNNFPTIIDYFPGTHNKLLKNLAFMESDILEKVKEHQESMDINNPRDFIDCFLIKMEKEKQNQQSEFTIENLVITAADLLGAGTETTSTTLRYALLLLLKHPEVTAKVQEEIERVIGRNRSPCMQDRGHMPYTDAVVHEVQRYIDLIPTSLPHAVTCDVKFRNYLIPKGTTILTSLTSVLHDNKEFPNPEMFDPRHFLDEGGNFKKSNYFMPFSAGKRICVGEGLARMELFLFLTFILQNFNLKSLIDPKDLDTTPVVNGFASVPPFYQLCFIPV

Hepatitis B virus [7] = assay: Antiviral activity against HBV infected human HePAD38 cells assessed as reduction in intracellular capsid content at 1 uM incubated for 6 days; assay type: functional, organism-based; conditions: time 6.0 day
CYP2D6 = CYP2D6 (Homo sapiens, UniProt P10635); assay: Inhibition of CYP2D6 (unknown origin) at 10 uM using dextromethorphan as substrate incubated for 10 mins in presence of NADPH by LC-MS/MS analysis relative to control; assay type: ADME; conditions: probe dextromethorphan
Chain of CYP2D6 (P10635 whole entry): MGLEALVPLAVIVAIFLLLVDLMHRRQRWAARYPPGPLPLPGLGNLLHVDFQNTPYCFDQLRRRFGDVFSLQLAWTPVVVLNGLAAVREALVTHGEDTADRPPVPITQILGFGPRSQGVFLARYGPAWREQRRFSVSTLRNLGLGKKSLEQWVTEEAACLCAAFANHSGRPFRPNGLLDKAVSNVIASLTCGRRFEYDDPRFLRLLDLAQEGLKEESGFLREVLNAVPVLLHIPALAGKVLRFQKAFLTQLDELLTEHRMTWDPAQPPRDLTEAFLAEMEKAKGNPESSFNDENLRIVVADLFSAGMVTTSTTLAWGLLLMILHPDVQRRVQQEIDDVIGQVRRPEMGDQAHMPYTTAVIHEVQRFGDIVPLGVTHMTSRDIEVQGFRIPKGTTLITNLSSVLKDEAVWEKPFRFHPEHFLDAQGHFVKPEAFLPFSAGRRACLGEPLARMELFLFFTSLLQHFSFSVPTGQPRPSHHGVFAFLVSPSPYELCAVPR

Structure (SMILES) | EC50 (Hepatitis B virus [1]) | CC50 [2] | selectivity ratio [3] | other results
CCOC(=O)C1=C(CN2CCN(C(C(=O)O)c3ccc4c(c3)OCCO4)CC2)NC(c2nccs2)=NC1c1ccc(F)cc1Br (configuration not stated) | 0.044 µM | 22.4 µM | 508 | 
CCOC(=O)C1=C(CN2CCN(C(C(=O)O)c3ccc(CC)cc3)CC2)NC(c2nccs2)=NC1c1ccc(F)cc1Br (configuration not stated) | 0.46 µM | 22.4 µM | 41.4 | 
Nc1ccc(S(=O)(=O)Nc2ccnn2-c2ccccc2)cc1 [SULFAPHENAZOLE] |  |  |  | inhibition at 10 min, 10 µM (CYP2C9): 87.1%
CCOC(=O)C1=C(CN2CCN(C(C(=O)O)C3=CCCC3)CC2)NC(c2nccs2)=NC1c1ccc(F)cc1Br (configuration not stated) | 0.5 µM | > 50 µM | > 100 | 
CCOC(=O)C1=C(CN2CCN(C(C(=O)O)c3cccc(C(F)(F)F)c3)CC2)NC(c2nccs2)=NC1c1ccc(F)cc1Br (configuration not stated) | 9.98 µM | 22.4 µM | 2.2 | 
CCOC(=O)C1=C(CN2CCN(C(C(=O)O)C3=CCCCC3)CC2)NC(c2nccs2)=NC1c1ccc(F)cc1Br (configuration not stated) | 0.84 µM | 29.2 µM | 34.8 | 
CCOC(=O)C1=C(CN2CCN(C(C(=O)O)c3ccsc3)CC2)NC(c2nccs2)=NC1c1ccc(F)cc1Br (configuration not stated) | 0.07 µM | > 50 µM | 962 | 
C=Cc1ccc(C(C(=O)O)N2CCN(CC3=C(C(=O)OCC)C(c4ccc(F)cc4Br)N=C(c4nccs4)N3)CC2)cc1 (configuration not stated) | 3.78 µM | 22.4 µM | 5.9 | 
CCOC(=O)C1=C(CN2CCN(C(C(=O)O)c3cccc(O)c3)CC2)NC(c2nccs2)=NC1c1ccc(F)cc1Br (configuration not stated) | 2.38 µM | > 50 µM | > 21 | 
CCOC(=O)C1=C(CN2CCN(C(C(=O)O)c3ccccc3OC)CC2)NC(c2nccs2)=NC1c1ccc(F)cc1Br (configuration not stated) | 2.35 µM | 50 µM | 21.3 | 
CCOC(=O)C1=C(CN2CCN(C(C(=O)O)c3ccc(Br)cc3)CC2)NC(c2nccs2)=NC1c1ccc(F)cc1Br (configuration not stated) | 1.24 µM | 22.4 µM | 18 | 
CCOC(=O)C1=C(CN2CCN(C(C(=O)O)c3ccc(F)cc3)CC2)NC(c2nccs2)=NC1c1ccc(F)cc1Br (configuration not stated) | > 10 µM | 29.2 µM | < 2.9 | 
CCOC(=O)C1=C(CN2CCN(C(C(=O)O)c3ccc(C#N)cc3)CC2)NC(c2nccs2)=NC1c1ccc(F)cc1Br (configuration not stated) | 4.31 µM | 29.2 µM | 6.8 | 
CCOC(=O)C1=C(CN2CCN(C(C(=O)O)c3ccccc3C)CC2)NC(c2nccs2)=NC1c1ccc(F)cc1Br (configuration not stated) | 0.58 µM | 22.4 µM | 30.2 | 
O=c1cc(-c2ccccc2)oc2c1ccc1ccccc12 [ALPHA-NAPHTHOFLAVONE] |  |  |  | inhibition at 10 min, 10 µM (CYP1A2): 88.7%
CCOC(=O)C1=C(CN2CCN(C(C(=O)O)c3ccccc3O)CC2)NC(c2nccs2)=NC1c1ccc(F)cc1Br (configuration not stated) | 6.48 µM | 22.4 µM | 3.4 | 
CCOC(=O)C1=C(CN2CCN(C(C(=O)O)c3ccccc3)CC2)NC(c2nccs2)=NC1c1ccc(F)cc1Br (configuration not stated) | 2.69 µM | > 50 µM | > 18.6 | 
C[C@]12CC[C@H]3[C@@H](CCC4=CC(=O)CC[C@@]43C)[C@@H]1CC[C@@H]2O [TESTOSTERONE] |  |  |  | CLint scaled [4]: 117 mL/min/kg; half-life [5]: 10.7 min; microsomal CLint [6]: 130 µL/min/mg
CCOC(=O)C1=C(CN2CCN(C(C(=O)O)c3cccc(F)c3)CC2)NC(c2nccs2)=NC1c1ccc(F)cc1Br (configuration not stated) | > 10 µM | 22.4 µM | < 2.2 | 
CCOC(=O)C1=C(CN2CCN(C(C(=O)O)c3cccc(C#N)c3)CC2)NC(c2nccs2)=NC1c1ccc(F)cc1Br (configuration not stated) | > 10 µM | 22.4 µM | < 2.2 | 

Structure (SMILES) | EC50 (Hepatitis B virus [1]) | CC50 [2] | selectivity ratio [3] | other results
CCOC(=O)C1=C(CN2CCN(C(C(=O)O)c3ccc(C)cc3)CC2)NC(c2nccs2)=NC1c1ccc(F)cc1Br (configuration not stated) | 8.48 µM | 22.4 µM | 2.6 | 
CCOC(=O)C1=C(CN2CCN(C(C(=O)O)c3ccc4c(c3)OCO4)CC2)NC(c2nccs2)=NC1c1ccc(F)cc1Br (configuration not stated) | 2.46 µM | 22.4 µM | 9.1 | 
CCOC(=O)C1=C(CN2CCN(C(C(=O)O)c3ccoc3)CC2)NC(c2nccs2)=NC1c1ccc(F)cc1Br (configuration not stated) | > 10 µM | > 50 µM |  | 
O=C(O)Cc1ccccc1Nc1c(Cl)cccc1Cl [DICLOFENAC] |  |  |  | CLint scaled [4]: 212 mL/min/kg; microsomal CLint [6]: 235 µL/min/mg
CCOC(=O)C1=C(CN2CCN(C(C(=O)O)c3ccc4occc4c3)CC2)NC(c2nccs2)=NC1c1ccc(F)cc1Br (configuration not stated) | 2.28 µM | 22.4 µM | 9.8 | 
CCOC(=O)C1=C(CN2CCN(C(C(=O)O)c3ccc(OC)c(OC)c3)CC2)NC(c2nccs2)=NC1c1ccc(F)cc1Br (configuration not stated) | > 10 µM | > 50 µM |  | 
CCOC(=O)C1=C(CN2CCN(C(C(=O)O)c3cccc(C(F)F)c3)CC2)NC(c2nccs2)=NC1c1ccc(F)cc1Br (configuration not stated) | > 10 µM | 22.4 µM | < 2.2 | 
CCOC(=O)C1=C(CN2CCN(C(C(=O)O)c3cccc(C=O)c3)CC2)NC(c2nccs2)=NC1c1ccc(F)cc1Br (configuration not stated) | > 10 µM | > 50 µM | 2440 | 
COc1cc(N)c(Cl)cc1C(=O)NC1CCN(CCCOc2ccc(F)cc2)CC1OC (configuration not stated) [CISAPRIDE] |  |  |  | inhibition at 1 µM (hERG (KCNH2)): 96.7%
CCOC(=O)C1=C(CN2CCN(C(C(=O)O)c3ccc(Cl)cc3)CC2)NC(c2nccs2)=NC1c1ccc(F)cc1Br (configuration not stated) | 0.39 µM | 22.4 µM | 57.3 | 
CCOC(=O)C1=C(CN2CCN(C(C(=O)O)c3cccc4ccccc34)CC2)NC(c2nccs2)=NC1c1ccc(F)cc1Br (configuration not stated) | 0.85 µM | 22.4 µM | 26.3 | 
CCOC(=O)C1=C(CN2CCN(C(C(=O)O)c3ccc(O)cc3)CC2)NC(c2nccs2)=NC1c1ccc(F)cc1Br (configuration not stated) | 6.3 µM | 22.4 µM | 3.5 | 
CC[C@@]1(c2ccccc2)NC(=O)N(Cc2ccccc2)C1=O |  |  |  | inhibition at 10 min, 10 µM (CYP2C19): 89.4%
C#Cc1cccc(C(C(=O)O)N2CCN(CC3=C(C(=O)OCC)C(c4ccc(F)cc4Br)N=C(c4nccs4)N3)CC2)c1 (configuration not stated) | > 10 µM | 22.4 µM | < 2.2 | 
Nc1ccn([C@@H]2CS[C@H](CO)O2)c(=O)n1 [LAMIVUDINE] | 0.09 µM | > 50 µM |  | Activity (Hepatitis B virus [7]): inactive
CCOC(=O)C1=C(CN2CCN(C(C(=O)O)c3ccc(OC)cc3)CC2)NC(c2nccs2)=NC1c1ccc(F)cc1Br (configuration not stated) | > 10 µM | 29.2 µM | < 2.9 | 
CCOC(=O)C1=C(CN2CCN(C(C(=O)O)c3cccc(C)c3)CC2)NC(c2nccs2)=NC1c1ccc(F)cc1Br (configuration not stated) | 2.52 µM | 22.4 µM | 8.9 | 
CCOC(=O)C1=C(CN2CCN(C(C(=O)O)c3ccccc3C#N)CC2)NC(c2nccs2)=NC1c1ccc(F)cc1Br (configuration not stated) | 5.36 µM | 50 µM | 9.3 | 
C=C[C@H]1C[N@@]2CC[C@H]1C[C@@H]2[C@@H](O)c1ccnc2ccc(OC)cc12 [QUINIDINE] |  |  |  | inhibition at 10 min, 10 µM (CYP2D6): 95.6%
CCOC(=O)C1=C(CN2CCN(C(C(=O)O)c3ccc(C=O)cc3)CC2)NC(c2nccs2)=NC1c1ccc(F)cc1Br (configuration not stated) | 3.87 µM | > 50 µM | > 12.9 | 
